Data reported in patent publication US11773127B2, “Compounds and methods for treating bacterial infections” (Washington University, priority 2017, dated 2023).
Read-outs that look alike come from different tables or passages of the source.

Molecular target: T1, FmlHLD (Escherichia coli, UniProt P77588)
T1 construct: 6xHis (C); made in house; host or cells: E. coli C600, periplasm, pTRC99a
Assay: biochemical
Type: binding, E. coli
Conditions: for PI100 (percent inhibition): galactoside at 100 μM; for inhibitory potency against FmlH, in words: ELISA-based competition assay
Method in brief: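 Sialidase-treated bovine submaxillary mucin (ds-BSM) coated wells, BSA-blocked, then biotinylated FmlH^LD (20 μg/mL) with or without compound for 1 h at room temperature. Bound lectin detected by streptavidin-HRP/TMB, A450.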

[1] = read-out: % Inhibition at [μM] [100], compound at 100 μM, inhibition of FmlHLD binding to ds-BSM
[2] = IC50, inhibition of FmlHLD binding to ds-BSM
[3] = IC50 (μM), Table 6, sulfonamides 3078-3090
[4] = mean with standard error of the mean, 100 µM
[5] = read-out: PI1 (percent inhibition), galactoside at 1 μM, mean with standard error of the mean
[6] = read-out: PI10 (percent inhibition), galactoside at 10 μM, mean with standard error of the mean
[7] = read-out: PI100 (percent inhibition), galactoside at 100 μM, mean with standard error of the mean
[8] = read-out: % Inhibition at [μM] [1], compound at 1 μM, inhibition of FmlHLD binding to ds-BSM
[9] = read-out: PI(1) (average percent inhibition), compound at 1 μM, Table 4
[10] = IC50 (μM), Table 5, Gal and GalNAc inhibition of FmlH
[11] = read-out: % Inhibition at [μM] [0.1], compound at 0.1 μM (100 nM), inhibition of FmlHLD binding to ds-BSM
[12] = read-out: PI (0.1) (average percent inhibition), compound at 100 nM, Table 4

T1 sequence (P77588 25-182): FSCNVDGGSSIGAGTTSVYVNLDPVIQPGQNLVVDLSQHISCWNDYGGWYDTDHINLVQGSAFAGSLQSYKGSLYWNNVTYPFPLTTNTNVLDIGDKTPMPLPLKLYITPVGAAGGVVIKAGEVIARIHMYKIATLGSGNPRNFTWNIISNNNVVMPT

Structure (SMILES): CC1=CC(=O)Cc2c1cc(F)c(O[C@@H]1O[C@H](CO)[C@H](O)[C@H](O)[C@H]1O)c2F [DiF-MUG, reference compound]
- inhibition at 10 µM (read-out: % Inhibition at [μM] [10], compound at 10 μM, inhibition of FmlHLD binding to ds-BSM): 0.85%
- inhibition at 100 µM [1]: 49.7%

Structure (SMILES): CC(=O)N[C@H]1[C@H](Oc2cccc(C#N)c2-c2cccc(NS(C)(=O)=O)c2)O[C@H](CO)[C@H](O)[C@@H]1O [AM2107]
- IC50 [2]: 0.109 µM

Structure (SMILES): COC(=O)c1cccc(-c2ccccc2O[C@H]2O[C@H](CO)[C@H](O)[C@H](O)[C@H]2O)c1 [Compound 116e]
- inhibition at 100 µM [1]: 13.1%

Structure (SMILES): CC(=O)N[C@H]1[C@H](Oc2cccc([N+](=O)[O-])c2-c2cccc(NS(C)(=O)=O)c2)O[C@H](CO)[C@H](O)[C@@H]1O [Compound 3078, N-((2S,3R,4R,5R,6R)-4,5-dihydroxy-6-(hydroxymethyl)-2-((3′-(methylsulfonamido)-6-nitro-[1,1′-biphenyl]-2-yl)oxy)tetrahydro-2H-pyran-3-yl)acetamide]
- IC50 [3]: 0.11 µM

Structure (SMILES): OC[C@H]1O[C@H](Oc2cccc3ccccc23)[C@H](O)[C@@H](O)[C@H]1O [Compound 115af1]
- inhibition at 100 µM [1]: 28.1%

Structure (SMILES): Cc1ccc(O[C@@H]2O[C@H](CO)[C@H](O)[C@H](O)[C@H]2O)cc1 [Compound 8β, 4-methylphenyl β-D-galactopyranoside]
- PI100 (percent inhibition) [4]: 85.8 ± 0.7%
- inhibition at 1 µM [5]: 4.6 ± 7.9%
- inhibition at 10 µM [6]: 16.5 ± 3.3%
- inhibition at 100 µM [7]: 86%

Structure (SMILES): OC[C@H]1O[C@@H](Oc2ccccc2Cl)[C@H](O)[C@@H](O)[C@H]1O [Compound 6β, 2-chlorophenyl β-D-galactopyranoside]
- PI100 (percent inhibition) [4]: 90.5 ± 0.6%
- inhibition at 1 µM [5]: 8 ± 4%
- inhibition at 10 µM [6]: 20.7 ± 5.5%
- inhibition at 100 µM [7]: 90%

Structure (SMILES): O=C(O)c1cccc(-c2ccccc2O[C@H]2O[C@H](CO)[C@H](O)[C@H](O)[C@H]2O)c1 [Compound 29α, 2′-(α/β-D-galactopyranosyloxy)-[1,1′-Biphenyl]-3-carboxylic acid]
- inhibition at 100 µM [7]: 26.2 ± 5.9%

Structure (SMILES): CC(=O)N[C@H]1[C@H](Oc2ccc3cnccc3c2)O[C@H](CO)[C@H](O)[C@@H]1O [AM2007, N-((2S,3R,4R,5R,6R)-4,5-dihydroxy-6-(hydroxymethyl)-2-(isoquinolin-6-yloxy)tetrahydro-2H-pyran-3-yl)acetamide]
- inhibition at 1 µM [8]: 12.6%
- inhibition at 1 µM [9]: 12.6%

Structure (SMILES): O=[N+]([O-])c1ccc(O[C@@H]2O[C@H](CO[C@@H]3O[C@H](CO)[C@H](O)[C@H](O)[C@H]3O)[C@H](O)[C@H](O)[C@H]2O)cc1 [Compound 35, p-nitrophenyl Gal-β1-6-Gal, reference compound]
- PI100 (percent inhibition) (mean with standard error of the mean): 19.4 ± 1.6%

Structure (SMILES): COc1cc(-c2[o+]c3cc(O)cc(O)c3cc2O[C@@H]2O[C@H](CO)[C@H](O)[C@H](O)[C@H]2O)ccc1O [PeoG, reference compound]
- inhibition at 100 µM [1]: 3.64%

Structure (SMILES): COc1cccc(-c2ccccc2O[C@@H]2O[C@H](CO)[C@H](O)[C@H](O)[C@H]2NC(C)=O)c1 [AM2029, N-((2S,3R,4R,5R,6R)-4,5-dihydroxy-6-(hydroxymethyl)-2-((3′-methoxy-[1,1′-biphenyl]-2-yl)oxy)tetrahydro-2H-pyran-3-yl)acetamide]
- inhibitory potency against FmlH, in words: equal or slightly reduced potency
- IC50 [10]: 2 µM
- inhibition at 1 µM [8]: 15.5%
- inhibition at 1 µM [9]: 15.5%

Structure (SMILES): CC(=O)N[C@H]1[C@H](Oc2cccc(C)c2-c2cccc(NS(C)(=O)=O)c2)O[C@H](CO)[C@H](O)[C@@H]1O [AM2110]
- IC50 [2]: 0.122 µM

Structure (SMILES): CC(=O)N[C@@H]1[C@H](Oc2cccc(C)c2-c2cccc(NS(=O)(=O)N(C)C)c2)OC(CO)[C@H](O)[C@@H]1O (stereo partly drawn) [Compound 3087, N-((2S,3S,4R,5R)-2-((3′-((N,N-dimethylsulfamoyl)amino)-6-methyl-[1,1′-biphenyl]-2-yl)oxy)-4,5-dihydroxy-6-(hydroxymethyl)tetrahydro-2H-pyran-3-yl)acetamide]
- inhibitory potency against FmlH, in words: retain the same activity as the methyl sulfonamides
- IC50 [3]: 0.13 µM

Structure (SMILES): CC(=O)N[C@H]1[C@H](Oc2ccccc2-c2cccc(NC(=O)C(F)(F)F)c2)O[C@H](CO)[C@H](O)[C@@H]1O [AM2101]
- IC50 [2]: 1.02 µM

Structure (SMILES): CC(=O)N[C@H]1[C@H](Oc2ccccc2-c2cccc(C(=O)N(C)C)c2)O[C@H](CO)[C@H](O)[C@@H]1O [AM2032, 2′-(((2S,3R,4R,5R,6R)-3-acetamido-4,5-dihydroxy-6-(hydroxymethyl)tetrahydro-2H-pyran-2-yl)oxy)-N,N-dimethyl-[1,1′-biphenyl]-3-carboxamide]
- inhibitory potency against FmlH, in words: equal or slightly reduced potency
- IC50 [10]: 3.13 µM
- inhibition at 1 µM [8]: -3.61%
- inhibition at 1 µM [9]: -3.61%

Structure (SMILES): CNC(=O)c1cccc(-c2ccccc2O[C@@H]2O[C@H](CO)[C@H](O)[C@H](O)[C@H]2O)c1 [AM2042, N-methyl-2′-(((2S,3R,4S,5R,6R)-3,4,5-trihydroxy-6-(hydroxymethyl)tetrahydro-2H-pyran-2-yl)oxy)-[1,1′-biphenyl]-3-carboxamide]
- inhibition at 0.1 µM [11]: 0%
- inhibition at 1 µM [8]: 16.6%
- inhibition at 0.1 µM [12]: 0%
- inhibition at 1 µM [9]: 16.6%

Structure (SMILES): OC[C@H]1O[C@H](Oc2ccccc2-c2ccccc2)[C@H](O)[C@@H](O)[C@H]1O [Compound 113f1]
- inhibition at 100 µM [1]: 19.2%

Structure (SMILES): COc1ccc(C(=O)O)cc1-c1ccccc1O[C@@H]1O[C@H](CO)[C@H](O)[C@H](O)[C@H]1NC(C)=O [Compound 2051, 2′-(((2S,3R,4R,5R,6R)-3-acetamido-4,5-dihydroxy-6-(hydroxymethyl)tetrahydro-2H-pyran-2-yl)oxy)-6-methoxy-[1,1′-biphenyl]-3-carboxylic acid]
- inhibitory potency against FmlH, in words: weakest activity
- IC50 [10]: 3.87 µM
- drop in activity relative to 29β-NAc (IC50 ratio): 6 fold
- inhibition at 0.1 µM [12]: 0%
- inhibition at 1 µM [9]: 15.9%

Structure (SMILES): COC(=O)c1cccc(-c2ccccc2O[C@H]2O[C@H](CO)[C@H](O)[C@H](O)[C@H]2O)c1 [Compound 30α, 2′-(α/β-D-galactopyranosyloxy)-[1,1′-Biphenyl]-3-carboxylic acid methyl ester]
- inhibition at 100 µM [7]: 13.1 ± 7.6%

Structure (SMILES): CC(=O)N[C@H]1[C@H](Oc2ccccc2-c2cccc(F)c2)O[C@H](CO)[C@H](O)[C@@H]1O [AM2028, N-((2S,3R,4R,5R,6R)-2-((3′-fluoro-[1,1′-biphenyl]-2-yl)oxy)-4,5-dihydroxy-6-(hydroxymethyl)tetrahydro-2H-pyran-3-yl)acetamide]
- inhibitory potency against FmlH, in words: equal or slightly reduced potency
- IC50 [10]: 1.48 µM
- inhibition at 1 µM [8]: 11.8%
- inhibition at 1 µM [9]: 11.8%

Structure (SMILES): Cc1cc(=O)oc2c(F)c(O[C@@H]3O[C@H](CO)[C@H](O)[C@H](O)[C@H]3O)c(F)cc12 [Compound 13β]
- PI100 (percent inhibition) [4]: 49.7 ± 4.5%
- inhibition at 10 µM [6]: 0.8 ± 3.1%
- inhibition at 100 µM [7]: 50%

Structure (SMILES): CC(=O)N[C@H]1[C@H](Oc2ccccc2-c2cccc(NS(C)(=O)=O)c2)O[C@H](CO)[C@H](O)[C@@H]1O [AM2038, N-((2S,3R,4R,5R,6R)-4,5-dihydroxy-6-(hydroxymethyl)-2-((3′-(methylsulfonamido)-[1,1′-biphenyl]-2-yl)oxy)tetrahydro-2H-pyran-3-yl)acetamide]
- potency relative to matched pair Gal/GalNAc derivative (2038 vs 2043, 2050 vs 3029): about 5 fold
- IC50 [10]: 0.23 µM
- IC50 [2]: 0.271 µM
- greater potency than 29β-NAc (IC50 ratio): 3 fold
- inhibition at 0.1 µM [11]: 16.5%
- inhibition at 1 µM [8]: 81.4%
- inhibition at 0.1 µM [12]: 16.5%
- inhibition at 1 µM [9]: 81.4%

Structure (SMILES): COc1cccc(O[C@@H]2O[C@H](CO)[C@H](O)[C@H](O)[C@H]2NC(C)=O)c1-c1cccc(NS(C)(=O)=O)c1 [AM2082]
- IC50 [2]: 0.151 µM
